Data from PubChem BioAssay AID1963974 (Molecular Pharmacology Branch, DTP, NCI, 2024).
pIC50: −log10 of the molar value.

System: 648629-189-R-J1-PDC spheroids with HUVEC/MSC, viability
Experiment: Anticancer human tumor 648629-189-R-J1-PDC patient-derived bladder carcinoma cell line growth inhibition [PI3K]
Conditions: for pIC50: curve of first compound; for viability, T/C: stronger effect = lower value
In short: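 We assembled tumor spheroids that included a stromal compartment of HUVEC and MSCs, then exposed them to targeted agents alone and together with PI3K pathway inhibitors. Concentration series descended by half-log from clinically achievable Cmax levels. Viability served as the endpoint.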

[1] = second compound 0.0316 µM, first compound 0.0316 µM
[2] = second compound 0.0316 µM, first compound 0.1 µM
[3] = second compound 0.1 µM, first compound 0.0316 µM
[4] = second compound 0.1 µM, first compound 0.1 µM
[5] = second compound 0.316 µM, first compound 0.0316 µM
[6] = second compound 0.316 µM, first compound 0.1 µM
[7] = second compound 1 µM, first compound 0.0316 µM
[8] = second compound 1 µM, first compound 0.1 µM
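Further: spheroids exposed to agents for seven days before reading.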
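Wherever viability, T/C is given: percent of vehicle control luminescence where 100% = DMSO treated spheroids.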

With `CC(C)n1nc(-c2ccc3oc(N)nc3c2)c2c(N)ncnc21` + CC(Nc1ncnc2nc[nH]c12)c1cc2cccc(Cl)c2c(=O)n1-c1ccccc1 the pIC50 (second compound 0.0316 µM) was 7.14, the pIC50 (second compound 0.1 µM) was 7.20 and the pIC50 (second compound 0.316 µM) was 7.20. For the same compound, the pIC50 (second compound 1 µM) was 7.21, the pIC50 (second compound 3.16 µM) was 7.25 and the pIC50 (second compound 10 µM) was 7.49. The viability, T/C (second compound 0.0316 µM, first compound 0.000316 µM) was 93.2%, the viability, T/C (second compound 0.0316 µM, first compound 0.001 µM) was 96.1% and the viability, T/C (second compound 0.0316 µM, first compound 0.00316 µM) was 87.9%. For the same compound, the viability, T/C (second compound 0.0316 µM, first compound 0.01 µM) was 85.4%, the viability, T/C [1] was 85.8% and the viability, T/C [2] was 36.5%. It also gave a viability, T/C (second compound 0.1 µM, first compound 0.000316 µM) of 101%, a viability, T/C (second compound 0.1 µM, first compound 0.001 µM) of 86.5% and a viability, T/C (second compound 0.1 µM, first compound 0.00316 µM) of 101%. The viability, T/C (second compound 0.1 µM, first compound 0.01 µM) was 97.7%, the viability, T/C [3] was 69.5% and the viability, T/C [4] was 37.5%. It also gave a viability, T/C (second compound 0.316 µM, first compound 0.000316 µM) of 99.5%, a viability, T/C (second compound 0.316 µM, first compound 0.001 µM) of 107% and a viability, T/C (second compound 0.316 µM, first compound 0.00316 µM) of 104%. It also gave a viability, T/C (second compound 0.316 µM, first compound 0.01 µM) of 85.8%, a viability, T/C [5] of 73.8% and a viability, T/C [6] of 34.7%. The viability, T/C (second compound 1 µM, first compound 0.000316 µM) was 104%, the viability, T/C (second compound 1 µM, first compound 0.001 µM) was 89.6% and the viability, T/C (second compound 1 µM, first compound 0.00316 µM) was 101%. The viability, T/C (second compound 1 µM, first compound 0.01 µM) was 85.6%, the viability, T/C [7] was 68.8% and the viability, T/C [8] was 36.5%. For the same compound, the viability, T/C (second compound 3.16 µM, first compound 0.000316 µM) was 85.8%, the viability, T/C (second compound 3.16 µM, first compound 0.001 µM) was 103% and the viability, T/C (second compound 3.16 µM, first compound 0.00316 µM) was 91.4%. It also gave a viability, T/C (second compound 3.16 µM, first compound 0.01 µM) of 84.6%, a viability, T/C (second compound 3.16 µM, first compound 0.0316 µM) of 66.1% and a viability, T/C (second compound 3.16 µM, first compound 0.1 µM) of 33.8%. The viability, T/C (second compound 10 µM, first compound 0.000316 µM) was 83.1%, the viability, T/C (second compound 10 µM, first compound 0.001 µM) was 87.1% and the viability, T/C (second compound 10 µM, first compound 0.00316 µM) was 81.4%. The viability, T/C (second compound 10 µM, first compound 0.01 µM) was 72.3%, the viability, T/C (second compound 10 µM, first compound 0.0316 µM) was 50.4% and the viability, T/C (second compound 10 µM, first compound 0.1 µM) was 30.3%.

`CC(C)NCC(C(=O)N1CCN(c2ncnc3c2C(C)CC3O)CC1)c1ccc(Cl)cc1` (centres undefined) + CC(Nc1ccc2c(c1)OCCn1cc(N3C(=O)OCC3C(F)F)nc1-2)C(N)=O was tested, and the pIC50 (second compound 0.00316 µM) was 5.89, the pIC50 (second compound 0.01 µM) was 6.00 and the pIC50 (second compound 0.0316 µM) was 6.06. The pIC50 (second compound 0.1 µM) was 5.94, the pIC50 (second compound 0.316 µM) was 6.19 and the pIC50 (second compound 1 µM) was 6.36. The viability, T/C (second compound 0.00316 µM, first compound 0.0316 µM) was 110%, the viability, T/C (second compound 0.00316 µM, first compound 0.1 µM) was 97.4% and the viability, T/C (second compound 0.00316 µM, first compound 0.316 µM) was 91.8%. It also gave a viability, T/C (second compound 0.00316 µM, first compound 1 µM) of 54.9%, a viability, T/C (second compound 0.00316 µM, first compound 3.16 µM) of 27.3% and a viability, T/C (second compound 0.00316 µM, first compound 10 µM) of 13.5%. It also gave a viability, T/C (second compound 0.01 µM, first compound 0.0316 µM) of 95.5%, a viability, T/C (second compound 0.01 µM, first compound 0.1 µM) of 105% and a viability, T/C (second compound 0.01 µM, first compound 0.316 µM) of 81%. The viability, T/C (second compound 0.01 µM, first compound 1 µM) was 50.2%, the viability, T/C (second compound 0.01 µM, first compound 3.16 µM) was 26.8% and the viability, T/C (second compound 0.01 µM, first compound 10 µM) was 16.2%. For the same compound, the viability, T/C [1] was 90.1%, the viability, T/C [2] was 99.3% and the viability, T/C (second compound 0.0316 µM, first compound 0.316 µM) was 77.7%. The viability, T/C (second compound 0.0316 µM, first compound 1 µM) was 44.5%, the viability, T/C (second compound 0.0316 µM, first compound 3.16 µM) was 27.1% and the viability, T/C (second compound 0.0316 µM, first compound 10 µM) was 14%. The viability, T/C [3] was 82.7%, the viability, T/C [4] was 80.7% and the viability, T/C (second compound 0.1 µM, first compound 0.316 µM) was 78.2%. It also gave a viability, T/C (second compound 0.1 µM, first compound 1 µM) of 52.4%, a viability, T/C (second compound 0.1 µM, first compound 3.16 µM) of 25.3% and a viability, T/C (second compound 0.1 µM, first compound 10 µM) of 13.6%. The viability, T/C [5] was 83.1%, the viability, T/C [6] was 75.6% and the viability, T/C (second compound 0.316 µM, first compound 0.316 µM) was 63.8%. For the same compound, the viability, T/C (second compound 0.316 µM, first compound 1 µM) was 41.3%, the viability, T/C (second compound 0.316 µM, first compound 3.16 µM) was 24.6% and the viability, T/C (second compound 0.316 µM, first compound 10 µM) was 14.2%. The viability, T/C [7] was 65.2%, the viability, T/C [8] was 67.8% and the viability, T/C (second compound 1 µM, first compound 0.316 µM) was 56.6%. The viability, T/C (second compound 1 µM, first compound 1 µM) was 32.2%, the viability, T/C (second compound 1 µM, first compound 3.16 µM) was 19% and the viability, T/C (second compound 1 µM, first compound 10 µM) was 12.6%.
